Target: T1, TLR8 (Homo sapiens, UniProt Q9NR97)
T1 sequence (Q9NR97 27-1041): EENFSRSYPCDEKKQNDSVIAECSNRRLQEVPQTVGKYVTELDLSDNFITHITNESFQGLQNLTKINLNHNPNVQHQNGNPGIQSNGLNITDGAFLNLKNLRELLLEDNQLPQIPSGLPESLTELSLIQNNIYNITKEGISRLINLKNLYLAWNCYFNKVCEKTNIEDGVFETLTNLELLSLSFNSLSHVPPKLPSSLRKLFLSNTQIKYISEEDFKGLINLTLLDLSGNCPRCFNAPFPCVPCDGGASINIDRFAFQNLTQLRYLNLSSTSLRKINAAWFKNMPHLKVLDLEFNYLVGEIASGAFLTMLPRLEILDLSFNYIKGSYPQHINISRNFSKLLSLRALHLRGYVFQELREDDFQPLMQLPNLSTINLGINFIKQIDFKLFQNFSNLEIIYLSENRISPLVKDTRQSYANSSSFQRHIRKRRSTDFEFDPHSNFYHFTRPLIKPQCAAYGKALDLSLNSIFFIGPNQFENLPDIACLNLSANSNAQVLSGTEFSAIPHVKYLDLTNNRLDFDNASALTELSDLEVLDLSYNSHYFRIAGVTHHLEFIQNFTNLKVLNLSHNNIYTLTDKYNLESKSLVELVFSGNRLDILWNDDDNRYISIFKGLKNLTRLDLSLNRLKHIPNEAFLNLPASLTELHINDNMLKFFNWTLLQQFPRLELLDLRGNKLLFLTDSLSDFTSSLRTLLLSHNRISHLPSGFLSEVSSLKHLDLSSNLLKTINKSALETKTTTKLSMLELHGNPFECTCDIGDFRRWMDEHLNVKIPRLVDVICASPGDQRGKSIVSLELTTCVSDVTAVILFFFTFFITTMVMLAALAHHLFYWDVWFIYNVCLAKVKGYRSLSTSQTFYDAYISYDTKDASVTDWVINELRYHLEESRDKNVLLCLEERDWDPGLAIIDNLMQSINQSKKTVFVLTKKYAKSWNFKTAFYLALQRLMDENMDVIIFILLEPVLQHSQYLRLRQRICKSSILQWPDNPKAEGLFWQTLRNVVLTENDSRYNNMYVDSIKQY
Experiment: Inhibition of TL8-506-stimulated NF-κB activity (SEAP reporter, QuantiBlue) in hTLR8-HEK293 reporter cells
Type: cell-based
Parameters: host or cells: HEK293 (HEK-Blue hTLR8)
Conditions: for inhibition at 10 µM: read-out: % inhibition at 10 µM ± SEM (NF-κB activity), 10 µM compound; for inhibition at 10 µM / IC50: TL8-506 (0.6 μM) 24 h; for inhibition at 10 µM / inhibition of NF-κB at 10 μM (in words): hTLR8-HEK293; for IC50: read-out: IC50 [μM] (95% CI) hTLR8-HEK293, inhibition of NF-κB activity, 1 h preincubation

SMILES | inhibition at 10 µM [%] | IC50 [µM] | inhibition of NF-κB at 10 μM (in words)
Cc1noc(C)c1COc1cccc(C(=O)N2CCCC(C)C2CN)c1 (stereo not shown) [Compound 2] | 3 ± 2 | – | –
Cc1noc(C)c1COc1cccc(C(=O)N2CCN(C)CC2C)c1 (stereo not shown) [Compound 3] | -6 ± 2 | – | –
Cc1noc(C)c1COc1ccc(C(=O)NCC(c2c(F)cccc2Cl)N(C)C)cc1 (stereo not shown) [Compound 5] | 37 ± 7 | – | –
Cc1noc(C)c1COc1cccc(C(=O)NCCN(C(C)C)C(C)C)c1 [Compound 6] | 9 ± 4 | – | –
Cc1noc(C)c1COc1cccc(C(=O)N2CCCN(Cc3ccc(C(F)(F)F)cc3)CC2)c1 [Compound 7] | 5 ± 7 | – | –
CCN1CCC(CNC(=O)c2cccc(OCc3c(C)noc3C)c2)CC1 [Compound 8] | 20 ± 4 | – | –
COc1cc(C(=O)NCCN2CCCC2)ccc1OCc1c(C)noc1C [Compound 11] | – | 6.62 | –
Cc1noc(C)c1COc1ccc(C(=O)N2CCN(Cc3ccccc3)CC2)cc1 [Compound 17, 4-Benzylpiperazin-1-yl(4-((3,5-Dimethylisoxazol-4-yl)methoxy)phenyl)methanone] | 52 ± 4 | – | moderate
Cc1noc(C)c1COc1ccc(C(=O)NCCN2CCCC2)cc1 [Compound 18, 4-((3,5-Dimethylisoxazol-4-yl)methoxy)-N-(2-(pyrrolidin-1-yl)ethyl)benzamide] | 61 ± 3 | – | –
Cc1noc(C)c1COc1ccc(C(=O)NC2CCN(C)C2)cc1 (stereo not shown) [Compound 19, 4-((3,5-Dimethylisoxazol-4-yl)methoxy)-N-(1-methylpyrrolidin-3-yl)benzamide] | 89 ± 2 | 3.06 | –
Cc1noc(C)c1COc1ccc(C(=O)NN2CCN(C)CC2)cc1 [Compound 20, 4-((3,5-Dimethylisoxazol-4-yl)methoxy)-N-(4-methylpiperazin-1-yl)benzamide] | 63 ± 0.7 | – | –
Cc1noc(C)c1COc1ccc(C(=O)N2CCC(N3CCCC3)CC2)cc1 [Compound 21, (4-((3,5-Dimethylisoxazol-4-yl)methoxy)phenyl)(4-(pyrrolidin-1-yl)piperidin-1-yl)methanone] | 75 ± 2 | – | –
COc1cc(C(=O)N2CCN(Cc3ccccc3)CC2)ccc1OCc1c(C)noc1C [Compound 22, (4-Benzylpiperazin-1-yl)(4-((3,5-dimethylisoxazol-4-yl)methoxy)-3-methoxyphenyl)methanone] | 54 ± 3 | – | moderate
COc1cc(C(=O)NN2CCN(C)CC2)ccc1OCc1c(C)noc1C [Compound 23, 4-((3,5-Dimethylisoxazol-4-yl)methoxy)-3-methoxy-N-(4-methylpiperazin-1-yl)benzamide] | 57 ± 3 | – | moderate
COc1cc(C(=O)N2CCC(N3CCCC3)CC2)ccc1OCc1c(C)noc1C [Compound 24, (4-((3,5-Dimethylisoxazol-4-yl)methoxy)-3-methoxyphenyl)(4-(pyrrolidin-1-yl)piperidin-1-yl)methanone] | 96 ± 2 | 3.46 | –
COc1cc(C(=O)N2CCC(N3CCCCC3)CC2)ccc1OCc1c(C)noc1C [Compound 26, [1,4′-Bipiperidin]-1′-yl(4-((3,5-dimethylisoxazol-4-yl)methoxy)-3-methoxyphenyl)methanone] | 77 ± 4 | 18.3 | –

SMILES | inhibition at 10 µM [%] | IC50 [µM] | inhibition of NF-κB at 10 μM (in words)
COc1cc(C(=O)NC2CCN(C)C2)ccc1OCc1c(C)noc1C (stereo not shown) [Compound 27, 4-((3,5-Dimethylisoxazol-4-yl)methoxy)-3-methoxy-N-(1-methylpyrrolidin-3-yl)benzamide] | 84 ± 4 | 8.15 | –
COc1cc(C(=O)NC2CCN(C(C)C)CC2)ccc1OCc1c(C)noc1C [Compound 28, 4-((3,5-Dimethylisoxazol-4-yl)methoxy)-N-(1-isopropylpiperidin-4-yl)-3-methoxybenzamide] | 97 ± 1 | 1.73 | –
CCN1CCC(NC(=O)c2ccc(OCc3c(C)noc3C)c(OC)c2)C1 (stereo not shown) [Compound 29, 4-((3,5-Dimethylisoxazol-4-yl)methoxy)-N-(1-ethylpyrrolidin-3-yl)-3-methoxybenzamide] | 72 ± 5 | – | –
COc1cc(C(=O)N2CCN(CCO)CC2)ccc1OCc1c(C)noc1C [Compound 30, (4-((3,5-Dimethylisoxazol-4-yl)methoxy)-3-methoxyphenyl)(4-(2-hydroxyethyl)piperazin-1-yl)methanone] | 24 ± 9 | – | low inhibition
CCCN1CCC(NC(=O)c2ccc(OCc3c(C)noc3C)c(OC)c2)CC1 [Compound 31, 4-((3,5-Dimethylisoxazol-4-yl)methoxy)-3-methoxy-N-(1-propylpiperidin-4-yl)benzamide] | 98 ± 0.3 | 1.66 | –
COc1cc(C(=O)NCC2CCN(C)C2)ccc1OCc1c(C)noc1C (stereo not shown) [Compound 32, 4-((3,5-Dimethylisoxazol-4-yl)methoxy)-3-methoxy-N-((1-methylpyrrolidin-3-yl)methyl)benzamide] | 77 ± 5 | – | –
COc1cc(C(=O)NC2CCN(C)CC2)ccc1OCc1c(C)noc1C [Compound 33, 4-((3,5-Dimethylisoxazol-4-yl)methoxy)-3-methoxy-N-(1-methylpiperidin-4-yl)benzamide] | 94 ± 2 | – | –
Cc1noc(C)c1COc1ccc(C(=O)NC2CCN(C)CC2)cc1 [Compound 34, 4-((3,5-Dimethylisoxazol-4-yl)methoxy)-N-(1-methylpiperidin-4-yl)benzamide] | 97 ± 0.9 | 1.68 | –
Cc1noc(C)c1COc1ccc(C(=O)NC2CCN(C(C)C)CC2)cc1 [Compound 35, 4-((3,5-Dimethylisoxazol-4-yl)methoxy)-N-(1-isopropylpiperidin-4-yl)benzamide] | 99 ± 0.2 | 0.99 | –
Cc1noc(C)c1COc1ccc(C(=O)N2CCN(CCO)CC2)cc1 [Compound 36, (4-((3,5-Dimethylisoxazol-4-yl)methoxy)phenyl)(4-(2-hydroxyethyl)piperazin-1-yl)methanone] | 26 ± 2 | – | low inhibition
Cc1noc(C)c1COc1ccc(C(=O)NCC2CCN(C)C2)cc1 (stereo not shown) [Compound 37, 4-((3,5-Dimethylisoxazol-4-yl)methoxy)-N-((1-methylpyrrolidin-3-yl)methyl)benzamide] | 80 ± 2 | – | –
CCCN1CCC(NC(=O)c2ccc(OCc3c(C)noc3C)cc2)CC1 [Compound 38, 4-((3,5-Dimethylisoxazol-4-yl)methoxy)-N-(1-propylpiperidin-4-yl)benzamide] | 100 ± 0.1 | 0.78 | –
CCN1CCC(NC(=O)c2ccc(OCc3c(C)noc3C)cc2)CC1 [Compound 39, 4-((3,5-Dimethylisoxazol-4-yl)methoxy)-N-(1-ethylpiperidin-4-yl)benzamide] | 100 ± 0.2 | 1.1 | –
CCCCN1CCC(NC(=O)c2ccc(OCc3c(C)noc3C)cc2)CC1 [Compound 40, N-(1-Butylpiperidin-4-yl)-4-((3,5-dimethylisoxazol-4-yl)methoxy)benzamide] | 99 ± 0.4 | 0.73 | –
C=CCN1CCC(NC(=O)c2ccc(OCc3c(C)noc3C)cc2)CC1 [Compound 41, N-(1-Allylpiperidin-4-yl)-4-((3,5-dimethylisoxazol-4-yl)methoxy)benzamide] | 99 ± 0.7 | 0.5 | –
Cc1noc(C)c1COc1ccc(C(=O)NC2CCNCC2)cc1 [Compound 43, 4-((3,5-Dimethylisoxazol-4-yl)methoxy)-N-(piperidin-4-yl)benzamide] | 32 | – | –

From publication PMC12613816, “Discovery of Novel Isoxazole-Based Small-Molecule Toll-Like Receptor 8 Antagonists” (Journal of Medicinal Chemistry, 2025)
